From patent US8349851B2, “JAK kinase modulating compounds and methods of use thereof” (Ambit Biosciences Corp., priority 2009, dated 2013)
Counter-ions that a name gives are not always drawn.

Tests used:
[1] = system: csTF-1 cells (GM-CSFR/JAK2/STAT5 pathway); test: csTF-1 cell-based reporter assay; parameters: species or system human; conditions: Homo sapiens; GM-CSF at 2 ng/mL, 4 hours; read-out: Cell Assay: CS0017: CS TF-1 reporter assay: IC50
Procedure: csTF-1 Cell-based Reporter Assay
csTF-1 cells are derived from the human erythroleukemia cell line that is growth dependent on GM-CSF and has an intact GM-CSFR/JAK2/STAT5 pathway. The cell line contains stably integrated beta-lactamase reporter gene under the control of the […] (irf 1) response element recognized by the activated transcription factor STATS. csTF-1 cells (Invitrogen K1219) were washed with assay media (97% OPTIMEM/0.5% dialyzed FBS/0.1 mM NEAA/1 mM Na pyr/P/S) and seeded in the same media at 5×10^5 cell/mL in T150 flask. After 16 hour incubation, cells were seeded at 2×10^5 cell/well in 50 μl volume, into Costar, clear bottom, 96-well assay plates. Serial dilutions of compounds were added to the plates with final DMSO concentration at 0.5% and GM-CSF at 2 ng/mL and the plates were then incubated at […] and 5% CO2 for 4 hours. The plates were brought to room temperature before adding Substrate Mixture according to manufacturer's protocol (Invitrogen, Catalog #K1085). The assay plates containing the substrate mixture were incubated in the dark at room temperature for 2 hours. Blue and green fluorescence was measured with excitation at 409 nm and emission at 460 nm (for blue) and excitation at 409 nm and emission at 530 nm (for green) using Spectra Max Gemini EM.

JAK3 = biological target: T1, JAK3 (Homo sapiens, UniProt P52333); test: Competition binding assay, JAK3; conditions: read-out: Binding Assay: JAK3 (active_KD, ENZ)
T1 construct: made in house
T1 sequence (P52333 822-1111 limits assumed): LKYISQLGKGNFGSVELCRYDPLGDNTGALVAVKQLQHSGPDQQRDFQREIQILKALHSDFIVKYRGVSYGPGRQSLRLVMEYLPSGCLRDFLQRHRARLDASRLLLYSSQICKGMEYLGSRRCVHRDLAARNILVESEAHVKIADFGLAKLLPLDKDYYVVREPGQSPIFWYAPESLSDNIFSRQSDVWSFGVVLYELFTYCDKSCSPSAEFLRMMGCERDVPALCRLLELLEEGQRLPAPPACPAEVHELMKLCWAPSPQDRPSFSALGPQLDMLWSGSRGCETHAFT
Source text: (§1) Competition Binding Assay to Determine Binding Constants (Kd) of the Compounds Against JAK Kinases
(§2) Competition binding assays used herein were developed, validated and performed as described in Fabian et al., Nature Biotechnology 2005, 23,329-336. Kinases were produced as fusions to T7 phage (See, Fabian et al. or WO04/015142) or alternatively, the kinases were expressed in HEK-293 cells and subsequently tagged with DNA for PCR detection (See, WO08/005310). For the binding assays, streptavidin-coated magnetic beads were treated with biotinylated affinity ligands for 30 min at rt to generate affinity resins. The liganded beads were blocked with excess biotin and washed with blocking buffer (SeaBlock (Pierce), 1% BSA, 0.05% Tween 20, 1 mM DTT) to remove unbound ligand and to reduce non-specific binding. […] Test compounds were prepared as 100× stocks in DMSO and rapidly diluted into the aqueous environment. DMSO was added to control assays lacking a test compound. Primary screen interactions were performed in polypropylene 384-well plates in a final volume of 34 μL, while Kd determinations were performed in polystyrene 96-well plates in a final volume of 135 μL. […] The kinase concentration in the eluates was measured by quantitative PCR. Each kinase was tested individually against each compound. Kds were determined using eleven serial threefold dilutions. A selectivity score, which is a quantitative measure of selectivity of a compound against a panel of enzymes, may be calculated for a compound by dividing the number of enzymes for which a compound meets a set criteria, (for example, a binding constant of 100 nM or less), by the total number of enzymes tested.

JAK2 = biological target: T2, JAK2 (Homo sapiens, UniProt O60674); test: Competition binding assay, JAK2; conditions: read-out: Binding Assay: JAK2 (active_KD)
T2 construct: made in house
T2 sequence (O60674 849-1124 limits assumed): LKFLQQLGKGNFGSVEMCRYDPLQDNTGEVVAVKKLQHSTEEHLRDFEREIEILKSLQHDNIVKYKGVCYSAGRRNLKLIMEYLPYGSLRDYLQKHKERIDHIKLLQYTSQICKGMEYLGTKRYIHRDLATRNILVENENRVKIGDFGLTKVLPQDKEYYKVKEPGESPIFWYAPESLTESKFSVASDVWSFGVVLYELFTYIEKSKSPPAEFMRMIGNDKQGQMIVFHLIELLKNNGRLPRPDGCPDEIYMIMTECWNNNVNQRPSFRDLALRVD
Source text: as §1, §2

AuroraB = biological target: T3, AuroraB (Homo sapiens, UniProt Q96GD4); test: Competition binding assay, Aurora B
T3 construct: made in house
T3 sequence (Q96GD4 whole entry): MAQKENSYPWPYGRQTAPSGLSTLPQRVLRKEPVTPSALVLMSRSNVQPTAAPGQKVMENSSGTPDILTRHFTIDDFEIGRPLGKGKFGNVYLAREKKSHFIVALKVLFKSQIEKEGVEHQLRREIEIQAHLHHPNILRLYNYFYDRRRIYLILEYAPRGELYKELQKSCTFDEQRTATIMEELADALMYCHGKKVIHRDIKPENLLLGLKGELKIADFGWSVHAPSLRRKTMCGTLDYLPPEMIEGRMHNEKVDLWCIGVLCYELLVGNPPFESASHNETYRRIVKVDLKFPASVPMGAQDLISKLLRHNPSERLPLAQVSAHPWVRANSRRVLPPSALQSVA
Source text: Methods for determining binding constant against Aurora B kinase are known to one of skill in the art. Exemplary methods are described in U.S. provisional application No. 61/294,413, and Fabian et al., Nature Biotechnology 2005, 23,329-336.
as §2

Row | SMILES | IC50 [1] [µM] | Kd (JAK3) [µM] | Kd (JAK2) [µM] | Kd (AuroraB) [µM]
1 | OC(c1ccc(F)cc1)c1nc(Nc2cc[nH]n2)c2ccccc2n1 (racemic) [Example 6, (R,S)-(4-(1H-pyrazol-3-ylamino)quinazolin-2-yl)(4-fluorophenyl)methanol] | ≤ 0.1 | 0.01 to 0.1 | ≤ 0.001 | > 0.2
2 | Fc1ccc(C(F)c2nc(Nc3cc[nH]n3)c3ccccc3n2)cc1 (racemic) [Example 7, (R,S)-2-(fluoro(4-fluorophenyl)methyl)-N-(1H-pyrazol-3-yl)quinazolin-4-amine] | 0.1 to 0.5 | 0.01 to 0.1 | ≤ 0.001 | > 0.2
3 | Cc1cc(Nc2nc(C(O)c3ccc(F)cc3)nc3ccccc23)n[nH]1 (racemic) [Example 12, (R,S)-(4-fluorophenyl)(4-(5-methyl-1H-pyrazol-3-ylamino)quinazolin-2-yl)methanol hydrochloride] | ≤ 0.1 | – | – | 0.05 to 0.2
4 | COC(c1ccc(F)cc1)c1nc(Nc2cc(C)[nH]n2)c2ccccc2n1 (racemic) [Example 13, (R,S)-2-((4-fluorophenyl)(methoxy)methyl)-N-(5-methyl-1H-pyrazol-3-yl)quinazolin-4-amine] | 0.1 to 0.5 | 0.01 to 0.1 | ≤ 0.001 | > 0.2
5 | Cc1cc(Nc2nc(C(N)c3ccc(F)cc3)nc3ccccc23)n[nH]1 (racemic) [Example 14, (R,S)-2-(amino(4-fluorophenyl)methyl)-N-(5-methyl-1H-pyrazol-3-yl)quinazolin-4-amine] | 0.1 to 0.5 | 0.01 to 0.1 | 0.001 to 0.01 | > 0.2
6 | N#Cc1cc(Nc2nc(C(O)c3ccc(F)cc3)nc3ccccc23)n[nH]1 (racemic) [Example 15, (R,S)-3-(2-((4-fluorophenyl)(hydroxy)methyl)quinazolin-4-ylamino)-1H-pyrazole-5-carbonitrile] | > 0.5 | > 0.1 | > 0.01 | > 0.2
7 | Cc1cc(Nc2nc(C(O)c3ccc(F)cc3)nc3cccc(F)c23)n[nH]1 (racemic) [Example 16, (R,S)-(5-fluoro-4-(5-methyl-1H-pyrazol-3-ylamino)quinazolin-2-yl)(4-fluorophenyl)methanol] | 0.1 to 0.5 | > 0.1 | > 0.01 | > 0.2
8 | Cc1cc(Nc2nc(C(O)c3ccc(F)cc3)nc3cc(C(F)(F)F)ccc23)n[nH]1 (racemic) [Example 18, (R,S)-(4-fluorophenyl)(4-(5-methyl-1H-pyrazol-3-ylamino)-7-(trifluoromethyl)quinazolin-2-yl)methanol] | 0.1 to 0.5 | 0.01 to 0.1 | 0.001 to 0.01 | > 0.2
9 | OC(c1ccc(F)cc1)c1nc(Nc2cc[nH]n2)c2ccc(I)cc2n1 (racemic) [Example 23, (R,S)-(4-(1H-pyrazol-3-ylamino)-7-iodoquinazolin-2-yl)(4-fluorophenyl)methanol] | 0.1 to 0.5 | > 0.1 | 0.001 to 0.01 | > 0.2
10 | Cc1ccc2c(Nc3cc(C)[nH]n3)nc(C(O)c3ccc(F)cc3)nc2c1 (racemic) [Example 25, (R,S)-(4-fluorophenyl)(7-methyl-4-(5-methyl-1H-pyrazol-3-ylamino)quinazolin-2-yl)methanol] | ≤ 0.1 | 0.01 to 0.1 | ≤ 0.001 | > 0.2
11 | COc1ccc2c(Nc3cc[nH]n3)nc(C(O)c3ccc(F)cc3)nc2c1 (racemic) [Example 29, (R,S)-(4-(1H-pyrazol-3-ylamino)-7-methoxyquinazolin-2-yl)(4-fluorophenyl)methanol] | ≤ 0.1 | 0.01 to 0.1 | ≤ 0.001 | > 0.2
12 | COc1ccc2c(Nc3cc(C)[nH]n3)nc(C(O)c3ccc(F)cc3)nc2c1 (racemic) [Example 31, (R,S)-(4-fluorophenyl)(7-methoxy-4-(5-methyl-1H-pyrazol-3-ylamino)quinazolin-2-yl)methanol] | ≤ 0.1 | 0.01 to 0.1 | ≤ 0.001 | > 0.2
13 | Cc1cc(Nc2nc(C(O)c3ccc(F)cc3)nc3cc(O)ccc23)n[nH]1 (racemic) [Example 36, (R,S)-2-((4-fluorophenyl)(hydroxy)methyl)-4-(5-methyl-1H-pyrazol-3-ylamino)quinazolin-7-ol] | ≤ 0.1 | 0.01 to 0.1 | ≤ 0.001 | 0.02 to 0.05
14 | Cc1cc(Nc2nc(C(O)c3ccc(F)cc3)nc3cc(OCCN4CCOCC4)ccc23)n[nH]1 (racemic) [Example 38, (R,S)-(4-fluorophenyl)(4-(5-methyl-1H-pyrazol-3-ylamino)-7-(2-morpholinoethoxy)quinazolin-2-yl)methanol] | 0.1 to 0.5 | ≤ 0.01 | ≤ 0.001 | > 0.2
15 | Cc1cc(Nc2nc(C(O)c3ccc(F)cc3)nc3cc(OCCO)ccc23)n[nH]1 (racemic) [Example 39, (R,S)-2-(2-((4-fluorophenyl)(hydroxy)methyl)-4-(5-methyl-1H-pyrazol-3-ylamino)quinazolin-7-yloxy)ethanol] | ≤ 0.1 | ≤ 0.01 | ≤ 0.001 | > 0.2
16 | Cc1cc(Nc2nc(C(O)c3ccc(F)cc3)nc3cc(OCCCO)ccc23)n[nH]1 (racemic) [Example 40, (R,S)-3-(2-((4-fluorophenyl)(hydroxy)methyl)-4-(5-methyl-1H-pyrazol-3-ylamino)quinazolin-7-yloxy)propan-1-ol] | ≤ 0.1 | ≤ 0.01 | ≤ 0.001 | > 0.2
17 | COCCOc1ccc2c(Nc3cc(C)[nH]n3)nc(C(O)c3ccc(F)cc3)nc2c1 (racemic) [Example 42, (R,S)-(4-fluorophenyl)(7-(2-methoxyethoxy)-4-(5-methyl-1H-pyrazol-3-ylamino)quinazolin-2-yl)methanol] | ≤ 0.1 | ≤ 0.01 | ≤ 0.001 | > 0.2
18 | Cc1cc(Nc2nc(C(O)c3ccc(F)cc3)nc3cc(OCC(=O)OC(C)(C)C)ccc23)n[nH]1 (racemic) [Example 43, (R,S)-tert-butyl 2-(2-((4-fluorophenyl)(hydroxy)methyl)-4-(5-methyl-1H-pyrazol-3-ylamino)quinazolin-7-yloxy)acetate] | 0.1 to 0.5 | 0.01 to 0.1 | ≤ 0.001 | > 0.2
19 | Cc1cc(Nc2nc(C(O)c3ccc(F)cc3)nc3cc(OCC(=O)O)ccc23)n[nH]1 (racemic) [Example 44, (R,S)-2-(2-((4-fluorophenyl)(hydroxy)methyl)-4-(5-methyl-1H-pyrazol-3-ylamino)quinazolin-7-yloxy)acetic acid] | > 0.5 | ≤ 0.01 | ≤ 0.001 | > 0.2
20 | Cc1cc(Nc2nc(C(CCN)c3ccc(F)cc3)nc3ccccc23)n[nH]1 (centres unmarked) [Example 71, 2-(3-amino-1-(4-fluorophenyl)propyl)-N-(5-methyl-1H-pyrazol-3-yl)quinazolin-4-amine] | > 0.5 | 0.01 to 0.1 | 0.001 to 0.01 | –
21 | COc1cc(Nc2nc(C(=O)c3ccc(F)cc3)nc3ccccc23)n[nH]1 [Example 73, (4-fluorophenyl)(4-(5-methoxy-1H-pyrazol-3-ylamino)quinazolin-2-yl)methanone] | 0.1 to 0.5 | 0.01 to 0.1 | ≤ 0.001 | –
